Assay results published in US6638957B1, “Use of compounds with a nitrogen-oxygen heterocycle” (Jomaa Pharmaka GmbH, priority 1999, dated 2003).
Values after ≈ are worked out from the molar mass of the structure shown. Read-outs that look alike come from different tables or passages of the source.

Legend:
Pseudomonas aeruginosa = assay: antibacterial activity, minimum inhibition concentration in liquid culture; assay type: cell-based; details: read-out: MIC(nM) of bacteria culture (Pseudomonas aeruginosa)
Method: A dilution series comprising the concentrations 500, 100, 50, 10 and 0 μmol 1^−1 of the individual compounds in LB medium is introduced into 5 culture microtubes in a volume of 0,5 ml. The tubes were inoculated with 10 μl of an overnight culture of E. coli K12 and shaken overnight at 37° C. The growth of the bacteria was assessed on the basis of the turbidity of the medium. The minimum concentration causing inhibition of bacterial growth was determined (minimum inhibition concentration MIC)
The antibacterial activity of P. aeruginosa was determined in the same manner.

Beta vulgaris [1] = assay: herbicidal activity, Erde Nachauflauf; assay type: in vivo
Method: (§1) The determination of herbicidal activity is performed according to standard procedure. Again the compounds listed on page 9 are tested.

Avena fatua [2] = assay: herbicidal activity, Erde Nachauflauf; assay type: in vivo
Method: as §1

Abutilon theophrasti [3] = assay: herbicidal activity, Erde Nachauflauf; assay type: in vivo
Method: as §1

Zea mays [4] = assay: herbicidal activity, Erde Nachauflauf; assay type: in vivo
Method: as §1

Cyperus esculentus [5] = assay: herbicidal activity, Erde Nachauflauf; assay type: in vivo
Method: as §1

Alopecurus myosuroides [6] = assay: herbicidal activity, Erde Nachauflauf; assay type: in vivo
Method: as §1

Setaria viridis [7] = assay: herbicidal activity, Erde Nachauflauf; assay type: in vivo
Method: as §1

Xanthium strumarium [8] = assay: herbicidal activity, Erde Nachauflauf; assay type: in vivo
Method: as §1

Amaranthus retroflexus [9] = assay: herbicidal activity, Erde Nachauflauf; assay type: in vivo
Method: as §1

Sinapis arvensis [10] = assay: herbicidal activity, Erde Nachauflauf; assay type: in vivo; details: Mutarda arvensis
Method: as §1

Galium aperine [11] = assay: herbicidal activity, Erde Nachauflauf; assay type: in vivo
Method: as §1

[12] = molecular target: T1, DOXP reductoisomerase of Escherichia coli (UniProt P56139); assay: inhibition of recombinant DOXP reductoisomerase (NADPH oxidation); assay type: biochemical; details: 1 mM DOXP, 0,3 mM NADPH, pH 7,5; read-out: IC50(nM) of DOXP reductoisomerase from Helicobacter pilori
T1 sequence (P56139 1-368): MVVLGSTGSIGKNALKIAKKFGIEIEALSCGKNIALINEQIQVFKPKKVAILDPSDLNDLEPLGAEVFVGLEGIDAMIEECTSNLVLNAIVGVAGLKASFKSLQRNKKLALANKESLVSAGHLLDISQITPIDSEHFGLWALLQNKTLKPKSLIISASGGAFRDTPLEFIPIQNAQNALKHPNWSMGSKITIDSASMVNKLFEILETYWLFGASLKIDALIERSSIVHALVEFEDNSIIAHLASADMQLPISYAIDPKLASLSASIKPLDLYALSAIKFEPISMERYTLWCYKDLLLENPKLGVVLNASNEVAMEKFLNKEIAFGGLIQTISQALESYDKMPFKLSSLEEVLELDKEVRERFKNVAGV

Beta vulgaris [13] = assay: herbicidal activity, Erde Vorauflauf; assay type: in vivo
Method: as §1

Avena fatua [14] = assay: herbicidal activity, Erde Vorauflauf; assay type: in vivo
Method: as §1

Abutilon theophrasti [15] = assay: herbicidal activity, Erde Vorauflauf; assay type: in vivo
Method: as §1

Zea mays [16] = assay: herbicidal activity, Erde Vorauflauf; assay type: in vivo
Method: as §1

Cyperus esculentus [17] = assay: herbicidal activity, Erde Vorauflauf; assay type: in vivo
Method: as §1

Alopecurus myosuroides [18] = assay: herbicidal activity, Erde Vorauflauf; assay type: in vivo
Method: as §1

Setaria viridis [19] = assay: herbicidal activity, Erde Vorauflauf; assay type: in vivo
Method: as §1

Xanthium strumarium [20] = assay: herbicidal activity, Erde Vorauflauf; assay type: in vivo
Method: as §1

Amaranthus retroflexus [21] = assay: herbicidal activity, Erde Vorauflauf; assay type: in vivo
Method: as §1

Sinapis arvensis [22] = assay: herbicidal activity, Erde Vorauflauf; assay type: in vivo; details: Mutarda arvensis
Method: as §1

Galium aperine [23] = assay: herbicidal activity, Erde Vorauflauf; assay type: in vivo
Method: as §1

Plasmodium falciparum = assay: antimalaria activity on in vitro cultures, [3H]-hypoxanthine incorporation; assay type: cell-based; details: 72 h, inhibition of [3H]-hypoxanthine incorporation, 48 + 24 hours, read-out: IC50(nM) of malaria culture (Plasmodium falciparum)
Method: The antimalaria activity of the compounds listed on page 9 was determined on in vitro cultures of the malaria pathogen Plasmodium falciparum. The depressions of a 96-well microtitre plate were charged with in each case 200 μl of an asynchroneous Plasmodium falciparum culture at a parasitaemia of 0,4% and haematokrit of 2%. A serial dilution series of the compounds in triple steps between concentrations of 100 to 0,14 μmol 1^−1 was then prepared. The plates were incubated at 37° C., 3% CO2 and 5% O2 over a period of 48 hours. 30 μl medium supplemented with 27 μCi ml^−1 [^3H]-hypoxanthine were then added to each well. After incubation for 24 hours the parasites were harvested by filtration on a glass fibre filter and the radioactivity which had been incorporated was measured. The inhibition of the growth of parasites was measured as the percentage inhibition of the incorporation of tritium. Inhibition of the growth of the parasites has been determined as percentage inhibition of incorporation of tritium based on a comparison without the substance. The half-maximum inhibitory concentration (IC50) of the substance was determined by extrapolation of the values.

Solanum = assay: herbicidal activity, Hydro Vorauflauf; assay type: in vivo
Method: as §1

Lepidium = assay: herbicidal activity, Hydro Vorauflauf; assay type: in vivo
Method: as §1

Reis = assay: herbicidal activity, Hydro Vorauflauf; assay type: in vivo
Method: as §1

Echinochloa = assay: herbicidal activity, Hydro Vorauflauf; assay type: in vivo
Method: as §1

Structure (SMILES): CC1CON(CCCP(=O)(O)O)C1=O (stereo not shown) [Compound 5]
- MIC (Pseudomonas aeruginosa): 2200 nM (≈ 0.491 µg/mL)
- plant injury at 2000 g/ha (Beta vulgaris [1]; 2000 Gramm/Hektar): 40%
- pest or weed control at 2000 g/ha (Avena fatua [2]; 2000 Gramm/Hektar): 40%
- pest or weed control at 2000 g/ha (Abutilon theophrasti [3]; 2000 Gramm/Hektar): 40%
- plant injury at 2000 g/ha (Zea mays [4]; 2000 Gramm/Hektar): 80%
- pest or weed control at 2000 g/ha (Cyperus esculentus [5]; 2000 Gramm/Hektar): 0%
- pest or weed control at 2000 g/ha (Alopecurus myosuroides [6]; 2000 Gramm/Hektar): 80%
- pest or weed control at 2000 g/ha (Setaria viridis [7]; 2000 Gramm/Hektar): 95%
- pest or weed control at 2000 g/ha (Xanthium strumarium [8]; 2000 Gramm/Hektar): 60%
- pest or weed control at 2000 g/ha (Amaranthus retroflexus [9]; 2000 Gramm/Hektar): 30%
- pest or weed control at 2000 g/ha (Sinapis arvensis [10]; 2000 Gramm/Hektar): 90%
- pest or weed control at 2000 g/ha (Galium aperine [11]; 2000 Gramm/Hektar): 70%
- IC50 [12]: 100 nM
- plant injury at 2000 g/ha (Beta vulgaris [13]; 2000 Gramm/Hektar): 30%
- pest or weed control at 2000 g/ha (Avena fatua [14]; 2000 Gramm/Hektar): 0%
- pest or weed control at 2000 g/ha (Abutilon theophrasti [15]; 2000 Gramm/Hektar): 0%
- plant injury at 2000 g/ha (Zea mays [16]; 2000 Gramm/Hektar): 0%
- pest or weed control at 2000 g/ha (Cyperus esculentus [17]; 2000 Gramm/Hektar): 0%
- pest or weed control at 2000 g/ha (Alopecurus myosuroides [18]; 2000 Gramm/Hektar): 60%
- pest or weed control at 2000 g/ha (Setaria viridis [19]; 2000 Gramm/Hektar): 0%
- pest or weed control at 2000 g/ha (Xanthium strumarium [20]; 2000 Gramm/Hektar): 0%
- pest or weed control at 2000 g/ha (Amaranthus retroflexus [21]; 2000 Gramm/Hektar): 0%
- pest or weed control at 2000 g/ha (Sinapis arvensis [22]; 2000 Gramm/Hektar): 50%
- pest or weed control at 2000 g/ha (Galium aperine [23]; 2000 Gramm/Hektar): 0%
- IC50 (Plasmodium falciparum): 1200 nM
- pest or weed control at 4000 g/ha (Solanum; 4000 Gramm/Hektar): 0%
- pest or weed control at 4000 g/ha (Lepidium; 4000 Gramm/Hektar): 40%
- pest or weed control at 4000 g/ha (Reis; 4000 Gramm/Hektar): 40%
- pest or weed control at 4000 g/ha (Echinochloa; 4000 Gramm/Hektar): 60%

Structure (SMILES): CN(C)CC(=O)CN1OCCC(C)(C)C1=O [Compound 8]
- MIC (Pseudomonas aeruginosa; LB medium, overnight at 37° C., turbidity): 7300 nM (≈ 1.67 µg/mL)
- plant injury at 1000 g/ha (Beta vulgaris [1]; 1000 Gramm/Hektar): 40%
- pest or weed control at 1000 g/ha (Avena fatua [2]; 1000 Gramm/Hektar): 80%
- pest or weed control at 1000 g/ha (Abutilon theophrasti [3]; 1000 Gramm/Hektar): 50%
- plant injury at 1000 g/ha (Zea mays [4]; 1000 Gramm/Hektar): 70%
- pest or weed control at 1000 g/ha (Cyperus esculentus [5]; 1000 Gramm/Hektar): 0%
- pest or weed control at 1000 g/ha (Alopecurus myosuroides [6]; 1000 Gramm/Hektar): 70%
- pest or weed control at 1000 g/ha (Setaria viridis [7]; 1000 Gramm/Hektar): 90%
- pest or weed control at 1000 g/ha (Xanthium strumarium [8]; 1000 Gramm/Hektar): 90%
- pest or weed control at 1000 g/ha (Amaranthus retroflexus [9]; 1000 Gramm/Hektar): 50%
- pest or weed control at 1000 g/ha (Sinapis arvensis [10]; 1000 Gramm/Hektar): 90%
- pest or weed control at 1000 g/ha (Galium aperine [11]; 1000 Gramm/Hektar): 70%
- IC50 [12]: 24 nM
- plant injury at 1000 g/ha (Beta vulgaris [13]; 1000 Gramm/Hektar): 30%
- pest or weed control at 1000 g/ha (Avena fatua [14]; 1000 Gramm/Hektar): 30%
- pest or weed control at 1000 g/ha (Abutilon theophrasti [15]; 1000 Gramm/Hektar): 0%
- plant injury at 1000 g/ha (Zea mays [16]; 1000 Gramm/Hektar): 30%
- pest or weed control at 1000 g/ha (Cyperus esculentus [17]; 1000 Gramm/Hektar): 0%
- pest or weed control at 1000 g/ha (Alopecurus myosuroides [18]; 1000 Gramm/Hektar): 30%
- pest or weed control at 1000 g/ha (Setaria viridis [19]; 1000 Gramm/Hektar): 0%
- pest or weed control at 1000 g/ha (Xanthium strumarium [20]; 1000 Gramm/Hektar): 0%
- pest or weed control at 1000 g/ha (Amaranthus retroflexus [21]; 1000 Gramm/Hektar): 20%
- pest or weed control at 1000 g/ha (Sinapis arvensis [22]; 1000 Gramm/Hektar): 30%
- pest or weed control at 1000 g/ha (Galium aperine [23]; 1000 Gramm/Hektar): 0%
- IC50 (Plasmodium falciparum): 700 nM
- pest or weed control at 2000 g/ha (Solanum; 2000 Gramm/Hektar): 30%
- pest or weed control at 2000 g/ha (Lepidium; 2000 Gramm/Hektar): 30%
- pest or weed control at 2000 g/ha (Reis; 2000 Gramm/Hektar): 0%
- pest or weed control at 2000 g/ha (Echinochloa; 2000 Gramm/Hektar): 40%
